Tests used:
hPMBC = assay: Chymotrypsin-like ProteasomeGlo assay in hPBMC; assay type: cell-based; conditions: Homo sapiens; read-out: Pglo hPBMC
Procedure, shortened: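 IC50 derived from luminescent chymotrypsin-like proteasome activity (Suc-LLVY-Glo substrate plus luciferin detection reagent). Measured after 105 min compound exposure at 37 °C, 5% CO2. Cells were human B cells purified from buffy-coat PBMC.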

[1] = target: T1, β5 subunit of the human constitutive proteasome (CPS) (Homo sapiens, UniProt P28074); assay: β5 inhibition assay, human constitutive proteasome (Suc-LLVY-AMC); assay type: biochemical; conditions: IC50 class, Suc-LLVY-AMC substrate
T1 construct: purchased Boston Biochem E-360
Procedure: The enzymatic activity of the β5 subunit of the human constitutive proteasome (CPS) is analyzed. In another assay, which differs from the assay of the human constitutive proteasome only in using the human immunoproteasome (IPS) the enzymatic activity of the β5 subunit of the human immunoproteasome (IPS) is analyzed. […] Inhibition is indicated as IC50 [nM] (“-”=not measured).

SMILES	IC50 (hPMBC) [nM]	IC50 [1] [nM]
Cc1ccc2cc1CNC(=O)C(CCc1ccncc1)NC(=O)[C@@H](NC(=O)Cc1nnc(N)s1)CC(=O)N1CCCC(CCO2)C1 (stereo partly drawn) [Compound 342, 2-(5-amino-1,3,4-thiadiazol-2-yl)-N-((12S)-5^4-methyl-8,11,14-trioxo-9-(2-(pyridin-4-yl)ethyl)-4-oxa-7,10-diaza-1(3,1)-piperidina-5(1,3)-benzenacyclotetradecaphane-12-yl)acetamide]	< 100	< 100
Cc1ccc2cc1CNC(=O)C(CCc1ccncc1)NC(=O)[C@@H](NC(=O)C1(c3ccc(N)cc3)CC1)CC(=O)N1CCCC(CCO2)C1 (stereo partly drawn) [Compound 343, 1-(4-aminophenyl)-N-((12S)-5^4-methyl-8,11,14-trioxo-9-(2-(pyridin-4-yl)ethyl)-4-oxa-7,10-diaza-1(3,1)-piperidina-5(1,3)-benzenacyclotetradecaphane-12-yl)cyclopropane-1-carboxamide]	< 100	< 100
Cc1ccc2cc1CNC(=O)C(CCc1ccncc1)NC(=O)[C@@H](NC(=O)Cc1ccc(N)cc1F)CC(=O)N1CCCC(CCO2)C1 (stereo partly drawn) [Compound 344, 2-(4-amino-2-fluorophenyl)-N-((12S)-5^4-methyl-8,11,14-trioxo-9-(2-(pyridin-4-yl)ethyl)-4-oxa-7,10-diaza-1(3,1)-piperidina-5(1,3)-benzenacyclotetradecaphane-12-yl)acetamide]	< 100	< 100
CCOC(C(=O)N[C@H]1CC(=O)N2CCCC(CCOc3ccc(C)c(c3)CNC(=O)[C@H](CCc3ccccc3)NC1=O)C2)c1ccc(N)cc1 (stereo partly drawn) [Compound 345, 2-(4-aminophenyl)-2-ethoxy-N-((9S,12S)-5^4-methyl-8,11,14-trioxo-9-phenethyl-4-oxa-7,10-diaza-1(3,1)-piperidina-5(1,3)-benzenacyclotetradecaphane-12-yl)acetamide]	< 100	< 100
Cc1ccc2cc1CNC(=O)[C@H](CCc1ccccc1)NC(=O)[C@@H](NC(=O)OCc1ccccc1)CCCCC(=O)NCCCCO2 [Compound 347, benzyl ((13S,16S)-1^4-methyl-8,14,17-trioxo-16-phenethyl-2-oxa-7,15,18-triaza-1(1,3)-benzenacyclononadecaphane-13-yl)carbamate]	< 100	< 100
Cc1ccc2cc1CNC(=O)[C@@H](CCc1ccccc1)NC(=O)[C@H](NC(=O)C(C)(C)CS)CC(=O)N1CCCC(CCO2)C1 (stereo partly drawn) [Compound 348, 3-mercapto-2,2-dimethyl-N-((9S,12S)-5^4-methyl-8,11,14-trioxo-9-phenethyl-4-oxa-7,10-diaza-1(3,1)-piperidina-5(1,3)-benzenacyclotetradecaphane-12-yl)propanamide]	< 100	< 100
Cc1ccc2cc1CNC(=O)[C@H](CCc1ccccc1)NC(=O)[C@@H](NC(=O)OCc1ccccc1)CCC(=O)N1CCC(CO2)C1 (stereo partly drawn) [Compound 349, benzyl ((8S,11S)-4^4-methyl-7,10,14-trioxo-8-phenethyl-3-oxa-6,9-diaza-1(3,1)-pyrrolidina-4(1,3)-benzenacyclotetradecaphane-11-yl)carbamate]	< 100	< 100
Cc1ccc2cc1CNC(=O)[C@H](CCc1ccccc1)NC(=O)[C@@H](NC(=O)OCc1ccccc1)CCC(=O)N1CCC(CCO2)C1 (stereo partly drawn) [Compound 350, benzyl ((9S,12S)-5^4-methyl-8,11,15-trioxo-9-phenethyl-4-oxa-7,10-diaza-1(3,1)-pyrrolidina-5(1,3)-benzenacyclopentadecaphane-12-yl)carbamate]	< 100	< 100
Cc1ccc2cc1CNC(=O)[C@H](CCc1ccccc1)NC(=O)[C@@H](NC(=O)OCc1ccccc1)CCCC(=O)N1CCC(CCO2)C1 (stereo partly drawn) [Compound 352, benzyl ((9S, 12S)-5^4-methyl-8,11,16-trioxo-9-phenethyl-4-oxa-7,10-diaza-1(3,1)-pyrrolidina-5(1,3)-benzenacyclohexadecaphane-12-yl)carbamate]	100 to 500	< 100
Cc1ccc2cc1CNC(=O)[C@H](CCc1ccccc1)NC(=O)[C@@H](NC(=O)OCc1ccccc1)CCCCC(=O)N1CC(CCO2)C1 [Compound 353, benzyl ((9S,12S)-5^4-methyl-8,11,17-trioxo-9-phenethyl-4-oxa-7,10-diaza-1(3,1)-azetidina-5(1,3)-benzenacycloheptadecaphane-12-yl)carbamate]	< 100	< 100
Cc1cc2cc(c1C)CNC(=O)C(c1cnn(C)c1)NC(=O)CCC(=O)N1CCCC(CCO2)C1 (stereo not shown) [Compound 355, 5^4,5^5-dimethyl-9-(1-methyl-1H-pyrazol-4-yl)-4-oxa-7,10-diaza-1(3,1)-piperidina-5(1,3)-benzenacyclotetradecaphane-8,11,14-trione]	< 100	1000 to 5000
Cc1ccc2cc1CNC(=O)C(c1cnn(C)c1)NC(=O)CCCCC(=O)N1CCCC(CCO2)C1 (stereo not shown) [Compound 356, 5^4-methyl-9-(1-methyl-1H-pyrazol-4-yl)-4-oxa-7,10-diaza-1(3,1)-piperidina-5(1,3)-benzenacyclohexadecaphane-8,11,16-trione]	< 100	500 to 1000
Cc1ccc2cc1CNC(=O)C(c1cnn(C)c1)NC(=O)[C@@H](NC(=O)CN1CCCC1)CC(=O)N1CCCC(CCO2)C1 (stereo partly drawn) [Compound 358, N-((12S)-5^4-methyl-9-(1-methyl-1H-pyrazol-4-yl)-8,11,14-trioxo-4-oxa-7,10-diaza-1(3,1)-piperidina-5(1,3)-benzenacyclotetradecaphane-12-yl)-2-(pyrrolidin-1-yl)acetamide]	< 100	100 to 500
Cc1ccc2cc1CNC(=O)C(c1cnn(C)c1)NC(=O)[C@@H](NC(=O)[C@@H](C)c1ccccc1)CC(=O)N1CCCC(CCO2)C1 (stereo partly drawn) [Compound 359, (2S)-N-((12S)-5^4-methyl-9-(1-methyl-1H-pyrazol-4-yl)-8,11,14-trioxo-4-oxa-7,10-diaza-1(3,1)-piperidina-5(1,3)-benzenacyclotetradecaphane-12-yl)-2-phenylpropanamide]	< 100	< 100
Cc1ccc2cc1CNC(=O)C(c1cnn(C)c1)NC(=O)[C@@H](NC(=O)C1CCCc3ccccc31)CC(=O)N1CCCC(CCO2)C1 (stereo partly drawn) [Compound 360, N-((12S)-5^4-methyl-9-(1-methyl-1H-pyrazol-4-yl)-8,11,14-trioxo-4-oxa-7,10-diaza-1(3,1)-piperidina-5(1,3)-benzenacyclotetradecaphane-12-yl)-1,2,3,4-tetrahydronaphthalene-1-carboxamide]	< 100	< 100
CO[C@@H](C(=O)N[C@H]1CC(=O)N2CCCC(CCOc3ccc(C)c(c3)CNC(=O)C(c3cnn(C)c3)NC1=O)C2)c1ccccc1 (stereo partly drawn) [Compound 361, (2R)-2-methoxy-N-((12S)-5^4-methyl-9-(1-methyl-1H-pyrazol-4-yl)-8,11,14-trioxo-4-oxa-7,10-diaza-1(3,1)-piperidina-5(1,3)-benzenacyclotetradecaphane-12-yl)-2-phenylacetamide]	< 100	< 100
COc1cccc(CC(=O)N[C@H]2CC(=O)N3CCCC(CCOc4ccc(C)c(c4)CNC(=O)C(c4cnn(C)c4)NC2=O)C3)c1 (stereo partly drawn) [Compound 362, 2-(3-methoxyphenyl)-N-((12S)-5^4-methyl-9-(1-methyl-1H-pyrazol-4-yl)-8,11,14-trioxo-4-oxa-7,10-diaza-1(3,1)-piperidina-5(1,3)-benzenacyclotetradecaphane-12-yl)acetamide]	< 100	< 100

Source: patent US20240415819A1, “MACROCYCLIC COMPOUNDS AS PROTEASOME SUBUNIT BETA TYPE-5 INHIBITORS” (Lead Discovery Center GmbH, priority 2021, published 2024)
